Assay results as given in PMC3249654 (The Open Virology Journal, 2011).
Several values for one entry are separate records, joined by “and”; a condition that tells them apart may be missing. Identical values can stand only once. Entries after “also recorded” stand apart in the source; their conditions may differ. Like-named read-outs stand apart in the source and are kept apart here.

Experiments:
[1] = tested on: NA enzyme activity of influenza A(H1N1) viruses; assay type: biochemical, influenza A(H1N1) virus
[2] = tested on: M2 of influenza A(H1N1) viruses
[3] = tested on: influenza virus; settings: human, in vivo; cited from earlier work

CC(=O)N[C@H]1[C@H]([C@H](O)[C@H](O)CO)OC(C(=O)O)=C[C@@H]1N=C(N)N [zanamivir]
susceptibility of oseltamivir resistant A(H1N1) viruses to zanamivir [1]: None of influenza A(H1N1) oseltamivir resistant viruses tested was resistant; also recorded: sensitive; also recorded: still susceptible
IC50 ([1]; read-out: baseline zanamivir IC50-value (mean±SD)): 1.05 nM and 0.98 nM
IC50 ([1]; read-out: mean IC50 ± SD): 0.87 ± 0.22 nM

NC12CC3CC(CC(C3)C1)C2 [amantadine]
susceptibility of oseltamivir resistant A(H1N1) viruses to amantadine / M2I [2]: still susceptible

CCOC(=O)C1=C[C@@H](OC(CC)CC)[C@H](NC(C)=O)[C@@H](N)C1 [oseltamivir]
oseltamivir-resistance emerged in treated children [3]: 18% and 16%
proportion of viruses resistant against oseltamivir, phenotypic assessment [1]: 29%
